# In US20240173333A1, “Treating Alagille Syndrome (ALGS)” (priority 2022, published 2024):
# Entries after “also recorded” stand apart in the source; their conditions may differ. Marks after values point to notes of the source that are not given here.
# Tests used:
# [1] = system: patients with Alagille syndrome (ALGS); experiment: Pooled ASSERT and ASSERT-EXT: observer-reported scratching scores; type: in vivo, human; conditions: for mean scratching score: pooled
# Experimental: (§1) In the completed 24-week ASSERT study, patients with ALGS with history of significant pruritus and elevated serum BAs were randomized 2:1 to once-daily odevixibat 120 μg/kg or placebo, respectively. Patients who completed ASSERT could enter ASSERT-EXT, an ongoing, 72-week open-label extension study in which all patients receive odevixibat 120 μg/kg/day. This pooled analysis included all odevixibat-treated patients from ASSERT and/or ASSERT-EXT and spans from patients' first dose of odevixibat to a data cut-off of Sep. 9, 2022. Assessments over up to 36 weeks of treatment included change in observer-reported scratching scores and sleep parameters, as well as levels of serum BAs, autotaxin (a proposed meditator of pruritus), and 7 alpha-hydroxy-4-cholesten-3-one (C4; a marker of bile acid synthesis). Safety evaluations included assessment of alanine aminotransferase (ALT), total bilirubin, and treatment-emergent adverse events (TEAEs).
# [2] = system: patients with Alagille syndrome (ALGS); experiment: ASSERT pruritus responders: caregiver-reported PedsQL
# Text: (§2) Treatment with concomitant medications for pruritus was permitted provided the patient was on a stable dosage for ≥4 weeks prior to enrollment that was maintained throughout the study.
# (§3) Pruritus responders were defined as patients having a ≥1-point decrease in ObsRO scratching score from baseline to weeks 21-24).
# [3] = system: patients with Alagille syndrome (ALGS); experiment: ASSERT: safety, treatment-emergent adverse events; type: in vivo, human
# Text: Safety. The primary safety analysis for this study included the incidence of total treatment-emergent adverse events (AEs) and treatment-emergent adverse events (TEAEs) categorized by causality, severity, and seriousness assessments made by the investigator by comparing study drug exposure to placebo. Other safety assessments included physical examinations, concomitant medications, vital signs, laboratory tests, and liver ultrasound and elastography.
# [4] = system: patients with Alagille syndrome (ALGS); experiment: Pooled ASSERT and ASSERT-EXT: serum bile acids, autotaxin, C4; type: in vivo, human
# Experimental: as §1
# [5] = system: patients with Alagille syndrome (ALGS); experiment: ASSERT-EXT open-label extension: ObsRO pruritus response; type: in vivo, human; conditions: placebo-odevixibat group; weeks 9-12 of ASSERT-EXT; 120 μg/kg/day
# Experimental: ASSERT-EXT is a Phase 3, multi-center, open-label extension study designed to evaluate the long-term safety and efficacy of 120 μg/kg/day odevixibat in relieving pruritus in patients with ALGS. Patients who participated in the ASSERT trial (see Example 1) and met eligibility criteria for the ASSERT trial were eligible to participate. The duration of the treatment period is 72 weeks, followed by a 4-week Safety Follow-up Period. Clinic visits occur every 4 to 12 weeks. […]
# Day 1 coincided with Week 24 in the ASSERT trial; however, if this was not possible due to logistic issues, patients enrolled in the ASSERT-EXT trial within 28 days of completion of the ASSERT trial. […] Two groups were analyzed up to an interim cut-off date of Sep. […]
# Outcomes evaluated include pruritus, serum BAs, sleep, and treatment-emergent adverse events (TEAEs). The Primary Efficacy Endpoint is the change from baseline in scratching through Week 72 as measured by the Albireo ObsRO caregiver instrument.
# Itching, Scratching, and Sleep Score. Itching, observed scratching, and sleep disturbance were recorded twice each day via eDiary. […] When logistically feasible, the same parent or caregiver recorded in the eDiary, and changes to the parent or caregiver who is performing the recording should be minimized. […] The caregiver recording in the eDiary was recorded. […]
# [6] = system: patients with Alagille syndrome (ALGS); experiment: ASSERT pruritus responders: ObsRO sleep parameters
# Text: as §2, §3
# patients with ALGS = conditions: 6 patients with ALGS; 4 weeks; open-label; cited from earlier work
smiles,measurement,setting,value
"CCCCC1(CCCC)CN(c2ccccc2)c2cc(SC)c(OCC(=O)N[C@@H](C(=O)N[C@@H](CC)C(=O)O)c3ccc(O)cc3)cc2S(=O)(=O)N1 [odevixibat, 1,1-dioxo-3,3-dibutyl-5-phenyl-7-methylthio-8-(N-{(R)-α-[N-((S)-1-carboxypropyl)carbamoyl]-4-hydroxybenzyl}carbamoylmethoxy)-2,3,4,5-tetrahydro-1,2,5-benzothiadiazepine]",mean scratching score,"[1]; baseline, before odevixibat",2.6
same,patients with a pruritus response (≥1 point reduction from baseline in scratching score),"[1]; last assessment on odevixibat, n=37/49",76%
same,mean scratching score,"[1]; weeks 1-4, 120 μg/kg/day",1.7
same,mean scratching score,[1]; weeks 21-24,1.0
same,mean scratching score,[1]; weeks 33-36,0.6
same,"PedsQL total score, Baseline Mean (SE)","[2]; n=24, range 0-100",68 (3)
same,"PedsQL total score, Mean (SE) Change From Baseline","[2]; to week 24, n=23",16 (4)^c
same,"PedsQL total score, Week 24 Mean (SE)","[2]; week 24, n=25",83 (2)
same,tolerability,[3]; 120 μg/kg/day over 24 weeks,generally well tolerated
same,deaths or TEAEs leading to study drug discontinuation,[3]; 24 weeks,No deaths or treatment-emergent adverse events leading to study drug discontinuation; also recorded: no deaths or treatment-emergent adverse events (TEAEs) leading to discontinuation of treatment
same,incidence of COVID-19,[3]; 24 weeks,14.3%
same,incidence of GI disorders,[3]; 24 weeks,34%
same,incidence of abdominal pain (preferred terms abdominal pain and abdominal pain upper),[3]; 24 weeks,14%
same,incidence of bronchitis,[3]; 24 weeks,8.6%
same,incidence of infections,[3]; 24 weeks,51.4%
same,incidence of liver-related events,[3]; 24 weeks,11%
same,incidence of respiratory tract infection,[3]; 24 weeks,8.6%
same,incidence of upper respiratory tract infection,[3]; 24 weeks,8.6%
same,incidence of SAEs,"[3]; 24 weeks, 120 μg/kg/day",14.3%
same,incidence of drug-related TEAE diarrhea,"[3]; 24 weeks, 120 μg/kg/day",11%
same,incidence of drug-related TEAEs,"[3]; 24 weeks, 120 μg/kg/day",23%
same,incidence of treatment-emergent diarrhea,"[3]; 24 weeks, 120 μg/kg/day",29%
same,patients with ALT and AST elevations ≥3× baseline without concurrent (within 30 days) elevations in total bilirubin ≥2× baseline,"[3]; 24 weeks, n=35",2 patients
same,serious infections reported,"[3]; 24 weeks, n=35",3 patients
same,patients who experienced at least one TEAE,"[3]; 26 of 35, 24 weeks, 120 μg/kg/day",74%
same,liver decompensation events,[3]; during the study,no cases
same,mean BA level,[4]; average of weeks 20 and 24,145 µmol/L
same,mean BA level,"[4]; baseline, before odevixibat",246 µmol/L
same,mean p-C4 levels following treatment,[4]; up to 36 weeks,approached normal levels
same,mean BA level,[4]; week 4,116 µmol/L
same,mean BA level,[4]; week 36,116 µmol/L
same,patients achieving a pruritus reduction ≥1-point from baseline,[5],70%
same,"Days seeing blood due to scratching, Baseline Mean (SE)",[6]; n=28,35 (6) %
same,"Days sleeping with caregiver, Baseline Mean (SE)",[6]; n=28,40 (9) %
same,"Days with help falling asleep, Baseline Mean (SE)",[6]; n=28,59 (8) %
same,"Days with soothing, Baseline Mean (SE)",[6]; n=28,68 (8) %
same,"Daytime tiredness, Baseline Mean (SE)","[6]; n=28, scale 0-4",2.2 (0.2)
same,"Days seeing blood due to scratching, Mean (SE) Change From Baseline",[6]; to weeks 21-24,−30 (5) %
same,"Days sleeping with caregiver, Mean (SE) Change From Baseline",[6]; to weeks 21-24,−34 (8) %
same,"Days with help falling asleep, Mean (SE) Change From Baseline",[6]; to weeks 21-24,−44 (8) %
same,"Days with soothing, Mean (SE) Change From Baseline",[6]; to weeks 21-24,−53 (8) %
same,"Days seeing blood due to scratching, Week 24 Mean (SE)","[6]; weeks 21-24, n=27",5 (2) %
same,"Days sleeping with caregiver, Week 24 Mean (SE)","[6]; weeks 21-24, n=27",8 (5) %
same,"Days with help falling asleep, Week 24 Mean (SE)","[6]; weeks 21-24, n=27",15 (6) %
same,"Days with soothing, Week 24 Mean (SE)","[6]; weeks 21-24, n=27",16 (5) %
same,"Daytime tiredness, Week 24 Mean (SE)","[6]; weeks 21-24, n=28, scale 0-4",1.0 (0.2)
same,"effect on sBAs, itch, and sleep disturbance",patients with ALGS,"reduced sBAs, itch, and sleep disturbance in a majority of those patients"
